Laboratory results reported in US11084824B2, “Pyrazolopyrimidine derivatives, preparation method thereof, and pharmaceutical composition for use in preventing or treating cancer, autoimmune disease and brain disease containing the same as an active ingredient” (Korea Research Institute of Chemical Technology, priority 2017, dated 2021).
Structures can show the parent of a compound that is named as a salt.

Experiments:
[1] = molecular target: Bruton's tyrosine kinase (BTK) (Homo sapiens (Human), UniProt Q06187); test: BTK enzyme inhibition assay (Cisbio HTRF kit); assay type: biochemical; settings: 30 minutes reaction, fluorescence 665 nm/620 nm
Experimental: BTK enzyme evaluation with each compound of examples of the invention was performed by using BTK enzyme inhibition diagnosis kit (Cisbio, Codolet, France). […] Then, EDTA (ethylenediaminetetraacetic acid) was added thereto in order to terminate the reaction. At this time, the EDTA solution contained curopium-containing antibody (antiphosphoresidue antibody) and straptavidin-XL665 (SA-XL665, Cisbio). After incubation for 1 hour, fluorescence was measured. The emission values of 665 nm and 620 nm excited at 337 nm were measured with Envision reader. IC50 values were determined using GraphPad prism (version 5). Herein, the curve indicates a nonlinear regression model, which was determined by logarithmic functions and reaction values.

TMD8 cells = test: TMD8 cell growth inhibition (WST-1, 72 hours); assay type: cell-based; settings: Homo sapiens, TMD8 ABC type DLBCL cell line, WST-1, absorbance 450 nm
Experimental: TDM-8 cells, the ABC (activated B-cell) type DLBCL (diffuse large B cell lymphoma) cell line sensitive to BTK signaling, were seeded in a 96-well plate at 30% confluency. Then, the compounds of the invention were treated thereto at different concentrations. 72 hours later, WST-1 reagent was added thereto. One hour later, absorbance was measured at 450 nm by using a spectramax spectrophotometer.

Sequence of Bruton's tyrosine kinase (BTK) (Q06187 whole entry): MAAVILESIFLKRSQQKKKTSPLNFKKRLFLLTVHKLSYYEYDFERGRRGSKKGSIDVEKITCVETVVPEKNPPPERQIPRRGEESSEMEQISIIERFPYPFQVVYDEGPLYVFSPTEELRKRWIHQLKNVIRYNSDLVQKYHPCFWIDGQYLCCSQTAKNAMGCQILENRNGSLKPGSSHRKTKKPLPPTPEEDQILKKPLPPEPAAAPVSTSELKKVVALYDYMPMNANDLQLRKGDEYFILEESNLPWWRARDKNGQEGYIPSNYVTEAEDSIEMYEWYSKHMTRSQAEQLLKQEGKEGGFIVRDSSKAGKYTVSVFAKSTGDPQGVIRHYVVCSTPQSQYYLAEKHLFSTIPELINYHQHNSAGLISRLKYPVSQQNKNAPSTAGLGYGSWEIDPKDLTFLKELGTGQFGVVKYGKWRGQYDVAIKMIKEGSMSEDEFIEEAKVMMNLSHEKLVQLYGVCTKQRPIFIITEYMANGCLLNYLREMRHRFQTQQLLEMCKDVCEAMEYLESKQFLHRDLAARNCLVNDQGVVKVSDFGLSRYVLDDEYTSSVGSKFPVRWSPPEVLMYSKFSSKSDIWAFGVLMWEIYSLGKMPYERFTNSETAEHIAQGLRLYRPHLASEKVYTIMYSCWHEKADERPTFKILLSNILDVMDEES

IC50 [1] | Compound | IC50 (TMD8 cells)
0.7 nM | CCN1CCc2ccc(Nc3ncc4c(Nc5c(C)cccc5C)nn(C)c4n3)cc2C1 [Example 32, N3-(2,6-dimethylphenyl)-N^6-(2-ethyl-1,2,3,4-tetrahydroisoquinoline-7-yl)-1-methyl-1H-pyrazolo[3,4-d]pyrimidine-3,6-diamine] | 37.9 nM
4.01 nM | CC(=O)N1CCc2ccc(Nc3ncc4c(Nc5c(C)cccc5C)nn(C)c4n3)cc2C1(C)C [Example 60, 1-(7-((3-((2,6-dimethylphenyl)amino)-1-methyl-1H-pyrazolo[3,4-d]pyrimidine-6-yl)amino)-1,1-dimethyl-3,4-dihydroisoquinoline-2(1H)-yl)ethane-1-one] | 159 nM
7.74 nM | Cc1cccc(C)c1Nc1nn(C)c2nc(Nc3ccc4c(c3)C(C(C)C)N(C)CC4)ncc12 (stereo not shown) [Example 65, N3-(2,6-dimethylphenyl)-N 6-(1-isopropyl-2-methyl-1,2,3,4-tetrahydroisoquinoline-7-yl)-1-methyl-1H-pyrazolo[3,4-d]pyrimidine-3,6-diamine] | 274 nM
0.3 nM | Cc1cccc(C)c1Nc1nn(C2CCCC2)c2nc(Nc3ccc4c(c3)CNCC4)ncc12 [Example 25, 1-cyclopentyl-N^3-(2,6-dimethylphenyl)-N^6-(1,2,3,4-tetrahydroisoquinoline-7-yl)-1H-pyrazolo[3,4-d]pyrimidine-3,6-diamine] | 90.3 nM
1.03 nM | CC(=O)N1CCc2ccc(Nc3ncc4c(Nc5c(C)cccc5C)nn(C)c4n3)cc2C1C (stereo not shown) [Example 61, 1-(7-((3-((2,6-dimethylphenyl)amino)-1-methyl-1H-pyrazolo[3,4-d]pyrimidine-6-yl)amino)-1-methyl-3,4-dihydroisoquinoline-2(1H)-yl)ethane-1-one] | 96.4 nM
0.3 nM | Cc1cccc(C)c1Nc1nn(C)c2nc(Nc3ccc4c(c3)CN(CCO)CC4)ncc12 [Example 24, 2-(7-((3-((2,6-dimethylphenyl)amino)-1-methyl-1H-pyrazolo[3,4-d]pyrimidine-6-yl)amino)-3,4-dihydroisoquinoline-2(1H)-yl)ethane-1-ol] | 40.1 nM
0.5 nM | Cc1cccc(C)c1Nc1nn(C)c2nc(Nc3ccc4c(c3)COCC4)ncc12 [Example 18, N^3(2,6-dimethylphenyl)-N^6 (isochroman-7-yl)-1-methyl-1H-pyrazolo[3,4-d]pyrimidine-3,6-diamine] | 134 nM
5 nM | Cc1cc(Oc2ccccc2)cc(C)c1Nc1nn(C)c2nc(Nc3ccc4c(c3)CNCC4)ncc12 [Example 33, N-(2,6-dimethyl-4-phenoxyphenyl)-1-methyl-N^6 (1,2,3,4-tetrahydroisoquinoline-7-yl)-1H-pyrazolo[3,4-d]pyrimidine-3,6-diamine] | 669 nM
5.22 nM | Cc1ccc(NC(=O)c2cccc(C(F)(F)F)c2)cc1Nc1nn(C)c2nc(Nc3ccc4c(c3)C(C)N(C)CC4)ncc12 (stereo not shown) [Example 64, N-(3-((6-((1,2-dimethyl-1,2,3,4-tetrahydroisoquinolin-7-yl)amino)-1-methyl-1H-pyrazolo[3,4-d]pyrimidine-3-yl)amino)-4-methylphenyl)-3-(trifluoromethyl)benzamide] | 10.1 nM
1.69 nM | Cc1cccc(C)c1Nc1nn(C)c2nc(Nc3ccc4c(c3)C(C)(C)NCC4)ncc12 [Example 58, N6-(1,1-dimethyl-1,2,3,4-tetrahydroisoquinolin-7-yl)-N 3-(2,6-dimethylphenyl)-1-methyl-1H-pyrazolo[3,4-d]pyrimidine-3,6-diamine] | 8.77 nM
0.745 nM | Cc1cccc(C)c1Nc1nn(C)c2nc(Nc3ccc4c(c3)CNC4)ncc12 [Example 56, N^3-(2,6-dimethylphenyl)-N^6-(isoindolin-5-yl)-1-methyl-1H-pyrazolo[3,4-d]pyrimidine-3,6-diamine hydrochloride] | 58.9 nM
